Tests used:
HiBit-KRAS^G12C [1] = biological target: T1, HiBit-KRAS^G12C (Homo sapiens, UniProt P01116, G12C); assay: HiBit degradation assay in MiaPaCa-2 HiBit-KRas^G12C cells; type: cell-based; settings: 24 hours; for Dmax: MIA PaCa-2, MiaPaCa-2 HiBit-KRas^G12C cells
Outline: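 DC50 and Dmax come from 4-parameter fits of DMSO-normalized HiBit luminescence after 24 hours' exposure at 37° C to 10 μM–20 nM compound in 0.1% or 0.5% DMSO. Cells: MiaPaCa-2 carrying one endogenously HiBit-tagged KRAS^G12C allele; concentrations causing ≥50% […] viability loss (alamar blue) excluded.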

HiBit-KRAS^G12C [2] = biological target: T1, HiBit-KRAS^G12C; assay: HiBit degradation assay in SW1573 HiBit-KRas^G12C cells; type: cell-based; design: expressed in transfected cells; host or cells: SW1573 (clone E6), modified pcDNA3.1 vector, TK promoter; settings: 24 hours; for DC50: read-out: KRas^G12C-HIBit (SW1573; 0.1% DMSO) DC50*
Outline: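 HiBit-KRAS G12C degradation was measured after a 24 h compound exposure (titrated 10 μM–20 nM) in engineered SW1573 cells. Lytic HiBit luminescence, expressed relative to DMSO controls, yielded DC50 and Dmax from 4-parameter fits. Concentrations causing ≥50% loss in alamar blue viability were omitted as cytotoxic.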

[3] = 0.1% DMSO, maximum degradation, read-out: KRas^G12C-HiBiT (MiaPaCa; 0.1% DMSO) DMax
[4] = SW1573, SW1573 HiBit-KRas^G12C, 0.1% DMSO, read-out: KRas^G12C-HiBit (SW1573; 0.1% DMSO) Dmax**
[5] = SW1573 HiBit-KRas^G12C, 0.1% DMSO
[6] = 0.5% DMSO, maximum degradation, read-out: KRas^G12C-HiBiT (MiaPaCa; 0.5% DMSO) DMax
[7] = SW1573, SW1573 HiBit-KRas^G12C, 0.5% DMSO, read-out: KRas^G12C-HiBiT (SW1573; 0.5% DMSO) Dmax**

T1 sequence (P01116 1-186 isoform P01116-2 G12C limits assumed): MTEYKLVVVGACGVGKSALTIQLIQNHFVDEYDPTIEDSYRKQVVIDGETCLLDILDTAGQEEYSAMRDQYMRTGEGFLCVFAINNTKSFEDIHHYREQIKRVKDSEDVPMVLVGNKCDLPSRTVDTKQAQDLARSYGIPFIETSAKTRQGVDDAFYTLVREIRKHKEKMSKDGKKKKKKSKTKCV

Row | SMILES | Dmax (HiBit-KRAS^G12C [1]; [3]) [%] | KRas^G12C-HiBiT (MiaPaCa; 0.5% DMSO) DMax (HiBit-KRAS^G12C [1]; MiaPaCa-2 HiBit-KRas^G12C cells, 0.5% DMSO, maximum degradation) | Dmax (HiBit-KRAS^G12C [2]; [4]) [%] | DC50 (HiBit-KRAS^G12C [2]; [5]) [nM] | KRas^G12C-HiBiT (SW1573; 0.5% DMSO) Dmax** (HiBit-KRAS^G12C [2]; SW1573 HiBit-KRas^G12C, 0.5% DMSO) | Dmax (HiBit-KRAS^G12C [1]; [6]) [%] | Dmax (HiBit-KRAS^G12C [2]; [7]) [%] | DC50 (HiBit-KRAS^G12C [1]; read-out: KRas^G12C-HiBiT (MiaPaCa; 0.1% DMSO) IC50, MiaPaCa-2 HiBit-KRas^G12C cells, 0.1% DMSO) [nM] | Dmax (HiBit-KRAS^G12C [2]; SW1573, read-out: KRas^G12C-HiBit (SW1573; 0.1% DMSO) Dmax**, SW1573 HiBit-KRas^G12C, 0.1% DMSO) [%]
1 | C=CC(=O)N1CCN(c2nc(OCCN3CCC(COCC(=O)N[C@H](C(=O)N4C[C@H](O)C[C@H]4C(=O)N[C@@H](C)c4ccc(-c5scnc5C)cc4)C(C)(C)C)CC3)nc3c(F)c(-c4cc(O)cc5ccccc45)c(Cl)cc23)C[C@@H]1CC#N [Compound 17, (2S,4R)-1-[(2S)-2-[2-({1-[2-({6-chloro-4-[(3S)-3-(cyanomethyl)-4-(prop-2-enoyl)piperazin-1-yl]-8-fluoro-7-(3-hydroxynaphthalen-1-yl)quinazolin-2-yl}oxy)ethyl]piperidin-4-yl}methoxy)acetamido]-3,3-dimethylbutanoyl]-4-hydroxy-N-[(1S)-1-[4-(4-methyl-1,3-thiazol-5-yl)phenyl]ethyl]pyrrolidine-2-carboxamide] | > 70 | A (A ≥ 70) | 35 to 70 | 100 to 1000 | A (A ≥ 70) | – | – | – | –
2 | C=CC(=O)N1CCN(c2nc(O[C@H](C)CN3CCC(COc4cc([C@@H](C(=O)N5C[C@H](O)C[C@H]5C(=O)N[C@@H](C)c5ccc(-c6scnc6C)cc5)C(C)C)on4)CC3)nc3c(F)c(-c4cc(O)cc5ccccc45)c(Cl)cc23)CC1 [Compound 20, (2S,4R)-1-[(2S)-2-[3-({1-[(2R)-2-{[6-chloro-8-fluoro-7-(3-hydroxynaphthalen-1-yl)-4-[4-(prop-2-enoyl)piperazin-1-yl]quinazolin-2-yl]oxy}propyl]piperidin-4-yl}methoxy)-1,2-oxazol-5-yl]-3-methylbutanoyl]-4-hydroxy-N-[(1S)-1-[4-(4-methyl-1,3-thiazol-5-yl)phenyl]ethyl]pyrrolidine-2-carboxamide] | 35 to 70 | – | 35 to 70 | 100 to 1000 | – | 35 to 70 | 35 to 70 | – | –
3 | C=CC(=O)N1CCN(c2nc(OCCN3CCC(OCCOc4cc([C@@H](C(=O)N5C[C@H](O)C[C@H]5C(=O)N[C@@H](C)c5ccc(-c6scnc6C)cc5)C(C)C)on4)CC3)nc3c(F)c(-c4cc(O)cc5ccccc45)c(Cl)cc23)C[C@@H]1CC#N [Compound 22, (2S,4R)-1-[(2S)-2-{3-[2-({1-[2-({6-chloro-4-[(3S)-3-(cyanomethyl)-4-(prop-2-enoyl)piperazin-1-yl]-8-fluoro-7-(3-hydroxynaphthalen-1-yl)quinazolin-2-yl}oxy)ethyl]piperidin-4-yl}oxy)ethoxy]-1,2-oxazol-5-yl}-3-methylbutanoyl]-4-hydroxy-N-[(1S)-1-[4-(4-methyl-1,3-thiazol-5-yl)phenyl]ethyl]pyrrolidine-2-carboxamide] | < 35 | – | < 35 | 100 to 1000 | – | – | – | – | –
4 | C=CC(=O)N1CCN(c2nc(O[C@H](C)CN3CCN(CC4CN(CC(=O)N[C@H](C(=O)N5C[C@H](O)C[C@H]5C(=O)N[C@@H](C)c5ccc(-c6scnc6C)cc5)C(C)(C)C)C4)CC3)nc3c(F)c(-c4cc(O)cc5ccccc45)c(Cl)cc23)CC1 [Compound 28, (2S,4R)-1-[(2S)-2-{2-[3-({4-[(2R)-2-{[6-chloro-8-fluoro-7-(3-hydroxynaphthalen-1-yl)-4-[4-(prop-2-enoyl)piperazin-1-yl]quinazolin-2-yl]oxy}propyl]piperazin-1-yl}methyl)azetidin-1-yl]acetamido}-3,3-dimethylbutanoyl]-4-hydroxy-N-[(1S)-1-[4-(4-methyl-1,3-thiazol-5-yl)phenyl]ethyl]pyrrolidine-2-carboxamide] | – | – | – | 100 to 1000 | – | – | – | > 1000 | < 35

Further lines, with some results ahead:

Row | Dmax (HiBit-KRAS^G12C [1]; [3]) [%] | KRas^G12C-HiBiT (MiaPaCa; 0.5% DMSO) DMax (HiBit-KRAS^G12C [1]; MiaPaCa-2 HiBit-KRas^G12C cells, 0.5% DMSO, maximum degradation) | Dmax (HiBit-KRAS^G12C [2]; [4]) [%] | DC50 (HiBit-KRAS^G12C [2]; [5]) [nM] | KRas^G12C-HiBiT (SW1573; 0.5% DMSO) Dmax** (HiBit-KRAS^G12C [2]; SW1573 HiBit-KRas^G12C, 0.5% DMSO) | Dmax (HiBit-KRAS^G12C [1]; [6]) [%] | Dmax (HiBit-KRAS^G12C [2]; [7]) [%] | SMILES | DC50 (HiBit-KRAS^G12C [1]; read-out: KRas^G12C-HiBiT (MiaPaCa; 0.1% DMSO) IC50, MiaPaCa-2 HiBit-KRas^G12C cells, 0.1% DMSO) [nM] | Dmax (HiBit-KRAS^G12C [2]; SW1573, read-out: KRas^G12C-HiBit (SW1573; 0.1% DMSO) Dmax**, SW1573 HiBit-KRas^G12C, 0.1% DMSO) [%]
5 | < 35 | – | < 35 | > 1000 | – | – | – | C=C(F)C(=O)N1CCN(c2nc(O[C@H](C)CN3CCC(COCC(=O)N[C@H](C(=O)N4C[C@H](O)C[C@H]4C(=O)N[C@@H](C)c4ccc(-c5scnc5C)cc4)C(C)(C)C)CC3)nc3c2CCN(c2cc(O)cc4ccccc24)C3)C[C@@H]1CC#N [Compound 24, (2S,4R)-1-[(2S)-2-[2-({1-[(2R)-2-({4-[(3S)-3-(cyanomethyl)-4-(2-fluoroprop-2-enoyl)piperazin-1-yl]-7-(3-hydroxynaphthalen-1-yl)-5H,6H,7H,8H-pyrido[3,4-d]pyrimidin-2-yl}oxy)propyl]piperidin-4-yl}methoxy)acetamido]-3,3-dimethylbutanoyl]-4-hydroxy-N-[(1S)-1-[4-(4-methyl-1,3-thiazol-5-yl)phenyl]ethyl]pyrrolidine-2-carboxamide] | – | –
6 | < 35 | – | 35 to 70 | 100 to 1000 | – | – | – | C=CC(=O)N1CCN(c2nc(OCCCN3CCC(OCC(=O)N[C@H](C(=O)N4C[C@H](O)C[C@H]4C(=O)N[C@@H](C)c4ccc(-c5scnc5C)cc4)C(C)(C)C)CC3)nc3c(F)c(-c4cc(O)cc5ccccc45)c(Cl)cc23)CC1 [Compound 25, (2S,4R)-1-[(2S)-2-(2-{[1-(3-{[6-chloro-8-fluoro-7-(3-hydroxynaphthalen-1-yl)-4-[4-(prop-2-enoyl)piperazin-1-yl]quinazolin-2-yl]oxy}propyl)piperidin-4-yl]oxy}acetamido)-3,3-dimethylbutanoyl]-4-hydroxy-N-[(1S)-1-[4-(4-methyl-1,3-thiazol-5-yl)phenyl]ethyl]pyrrolidine-2-carboxamide] | – | –
7 | 35 to 70 | – | 35 to 70 | > 1000 | – | 35 to 70 | 35 to 70 | C=CC(=O)N1CCN(c2nc(O[C@H](C)CN3CCC(COCC(=O)N[C@H](C(=O)N4C[C@H](O)C[C@H]4C(=O)N[C@@H](C)c4ccc(-c5scnc5C)cc4)C(C)(C)C)CC3)nc3c2CCN(c2cc(O)cc4ccccc24)C3)C[C@@H]1CC#N [Compound 29, (2S,4R)-1-[(2S)-2-[2-({1-[(2R)-2-({4-[(3S)-3-(cyanomethyl)-4-(prop-2-enoyl)piperazin-1-yl]-7-(3-hydroxynaphthalen-1-yl)-5H,6H,7H,8H-pyrido[3,4-d]pyrimidin-2-yl}oxy)propyl]piperidin-4-yl}methoxy)acetamido]-3,3-dimethylbutanoyl]-4-hydroxy-N-[(1S)-1-[4-(4-methyl-1,3-thiazol-5-yl)phenyl]ethyl]pyrrolidine-2-carboxamide] | – | –
8 | < 35 | – | 35 to 70 | > 1000 | – | < 35 | 35 to 70 | C=CC(=O)N1CCN(c2nc(O[C@H](C)CN3CCC(OCCOCC(=O)N[C@H](C(=O)N4C[C@H](O)C[C@H]4C(=O)N[C@@H](C)c4ccc(-c5scnc5C)cc4)C(C)(C)C)CC3)nc3c2CCN(c2cc(O)cc4ccccc24)C3)C[C@@H]1CC#N [Compound 31, (2S,4R)-1-[(2S)-2-{2-[2-({1-[(2R)-2-({4-[(3S)-3-(cyanomethyl)-4-(prop-2-enoyl)piperazin-1-yl]-7-(3-hydroxynaphthalen-1-yl)-5H,6H,7H,8H-pyrido[3,4-d]pyrimidin-2-yl}oxy)propyl]piperidin-4-yl}oxy)ethoxy]acetamido}-3,3-dimethylbutanoyl]-4-hydroxy-N-[(1S)-1-[4-(4-methyl-1,3-thiazol-5-yl)phenyl]ethyl]pyrrolidine-2-carboxamide] | – | –
9 | 35 to 70 | – | 35 to 70 | 100 to 1000 | – | > 70 | > 70 | C=CC(=O)N1CCN(c2nc(OCCN3CCC(OCCOCC(=O)N[C@H](C(=O)N4C[C@H](O)C[C@H]4C(=O)N[C@@H](C)c4ccc(-c5scnc5C)cc4)C(C)(C)C)CC3)nc3c(F)c(-c4cc(O)cc5ccccc45)c(Cl)cc23)C[C@@H]1CC#N [Compound 32, (2S,4R)-1-[(2S)-2-{2-[2-({1-[2-({6-chloro-4-[(3S)-3-(cyanomethyl)-4-(prop-2-enoyl)piperazin-1-yl]-8-fluoro-7-(3-hydroxynaphthalen-1-yl)quinazolin-2-yl}oxy)ethyl]piperidin-4-yl}oxy)ethoxy]acetamido}-3,3-dimethylbutanoyl]-4-hydroxy-N-[(1S)-1-[4-(4-methyl-1,3-thiazol-5-yl)phenyl]ethyl]pyrrolidine-2-carboxamide] | – | –

Source: US20220370416A1, “COMPOUNDS AND METHODS FOR TARGETED DEGRADATION OF KRAS” (Arvinas Operations, Inc., priority 2020, published 2022)
